In paper PMC4384635, “Autoinhibition of Bruton's tyrosine kinase (Btk) and activation by soluble inositol hexakisphosphate” (eLife, 2015):
One block for each compound: values may come before it.

Assays:
[1] = molecular target: T1, Bruton's tyrosine kinase (Btk) (Bos taurus, UniProt Q3ZC95, DEL171-383/L542M/S543T/V555T/R562K/S564A/P565S); type: binding
T1 construct: PH-TH-kinase construct (residues 1 to 170 connected to residues 384 to 659)

[2] = molecular target: PH-TH module of bovine Btk (residues 1 to 172) (bovine) (UniProt Q3ZC95); assay: not stated; preliminary studies; dimerization of the PH-TH module induced by IP6; dimer to monomers
[3] = molecular target: T2, Bruton's tyrosine kinase (Btk) (Bos taurus, UniProt Q3ZC95); assay: ITC; type: binding
T2 construct: PH-TH module (residues 1 to 172)

[4] = molecular target: Src-like module of mouse Btk (SH3-SH2-kinase module, residues 214 to 659) (mouse) (UniProt P35991); assay: cross-linking; peak B; disuccinimidyl glutarate and PAGE analysis; results not shown
[5] = molecular target: Src-like module of mouse Btk (SH3-SH2-kinase module, residues 214 to 659) (mouse) (UniProt P35991); assay: SEC; peak B from mono-Q, HiPrep S-200 16/60, 25 mM Tris·Cl pH 8.5, 25 mM NaCl, 5 mM DTT, 4°C
[6] = molecular target: T3, Bruton's tyrosine kinase (Btk) (Bos taurus, UniProt Q3ZC95, N24D/R28C); assay: ITC with the canonical-site mutant (also printed as R28C/N24D and R28C/N24E); type: binding
T3 construct: PH-TH module (residues 1 to 172)

[7] = molecular target: T2, Bruton's tyrosine kinase (Btk); assay: ITC; crystal structure at […] Å; also activates full-length Btk (EC50 around […]); type: binding

T2 sequence (Q3ZC95 1-172): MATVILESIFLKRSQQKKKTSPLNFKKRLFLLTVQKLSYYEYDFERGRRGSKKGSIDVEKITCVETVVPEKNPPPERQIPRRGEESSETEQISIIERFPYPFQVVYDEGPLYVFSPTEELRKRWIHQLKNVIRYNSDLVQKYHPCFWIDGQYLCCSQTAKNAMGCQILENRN
T1 sequence (Q3ZC95 entry or part of it DEL171-383/L542M/S543T/V555T/R562K/S564A/P565S): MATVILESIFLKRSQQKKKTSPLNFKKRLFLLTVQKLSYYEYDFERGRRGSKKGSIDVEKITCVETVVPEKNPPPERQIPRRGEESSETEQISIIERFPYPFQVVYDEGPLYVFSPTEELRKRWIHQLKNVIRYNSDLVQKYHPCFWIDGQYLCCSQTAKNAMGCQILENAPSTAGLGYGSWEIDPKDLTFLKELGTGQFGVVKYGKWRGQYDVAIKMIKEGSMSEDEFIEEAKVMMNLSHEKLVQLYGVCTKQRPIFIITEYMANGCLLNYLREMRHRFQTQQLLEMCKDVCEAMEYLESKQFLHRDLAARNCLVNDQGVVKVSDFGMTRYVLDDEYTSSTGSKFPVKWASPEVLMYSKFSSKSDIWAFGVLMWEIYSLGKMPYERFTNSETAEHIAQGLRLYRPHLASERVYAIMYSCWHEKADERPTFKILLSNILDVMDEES
T3 sequence (Q3ZC95 1-172 N24D/R28C): as the sequence (Q3ZC95 1-172) above, with N24D, R28C counted along it

Compound: Cc1c(NC(=O)c2ccc(C(C)(C)C)cc2)cccc1-c1cn(C)c(=O)c(Nc2ccc(C(=O)N3CCOCC3)cc2)n1 [CGI1746]
- crystal structure at 1.7 Å [1]: structure of the PH-TH-kinase with a bound ATP-competitive inhibitor (CGI1746

Compound: O=P(O)(O)O[C@H]1[C@H](O)[C@@H](OP(=O)(O)O)[C@H](OP(=O)(O)O)[C@@H](OP(=O)(O)O)[C@H]1O [IP4, inositol tetrakisphosphate]
- Kd [3]: 26 ± 6 nM

Compound: O=P(O)(O)O[C@H]1[C@H](OP(=O)(O)O)[C@@H](OP(=O)(O)O)[C@H](OP(=O)(O)O)[C@@H](OP(=O)(O)O)[C@H]1OP(=O)(O)O [IP6, inositol hexakisphosphate]
- Kd [6]: 4.76 ± 0.7 µM
- Kd [7]: 238 ± 32 nM

Next, values leading:

- Kd [2]: > 100 µM
Compound: PH-TH module of bovine Btk (residues 1 to 172) (from UniProt Q3ZC95 1-172) (domain or fragment)

- stoichiometry N [4]: 2
- stoichiometry N [5]: 2
Compound: Src-like module of mouse Btk (SH3-SH2-kinase module, residues 214 to 659) (from UniProt P35991 214-659) (domain or fragment)
